In patent publication US6596772B1, “Phosphate mimics and methods of treatment using phosphatase inhibitors” (Sugen, Inc., priority 1999, dated 2003):
Read-outs that look alike come from different tables or passages of the source.

Key:
Experiment in all cases: PTP IC50 assay, fluorescent substrate DiFMUP
Type in all cases: biochemical
PTP 1B = target: T1, PTP 1B (Homo sapiens, UniProt P18031)
T1 construct: made in house; host or cells: Sf-9 insect cells (pFastBac-G2T)
T1 sequence (P18031 1-435): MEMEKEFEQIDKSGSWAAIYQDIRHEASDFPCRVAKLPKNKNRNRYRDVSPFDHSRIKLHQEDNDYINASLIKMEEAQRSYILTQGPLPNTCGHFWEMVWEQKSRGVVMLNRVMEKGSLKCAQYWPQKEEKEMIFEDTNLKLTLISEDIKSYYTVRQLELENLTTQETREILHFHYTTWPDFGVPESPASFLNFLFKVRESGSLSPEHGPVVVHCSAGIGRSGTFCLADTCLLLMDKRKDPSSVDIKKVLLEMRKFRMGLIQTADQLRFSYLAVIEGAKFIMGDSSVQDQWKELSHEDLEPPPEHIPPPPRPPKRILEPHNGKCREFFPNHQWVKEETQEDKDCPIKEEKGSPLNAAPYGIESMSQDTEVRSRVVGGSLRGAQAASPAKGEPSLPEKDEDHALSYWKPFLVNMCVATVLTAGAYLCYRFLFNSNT
Source text: The PTP1b cDNA was amplified from human placenta single strand cDNA (Clontech RNA) using the following oligonucleotides: 5′oligo: 5′-[…] (SEQ ID NO: 4) 3′oligo: 5′-[…] (SEQ ID NO: 5) It was subsequently ligated into pFasBac G2TBamH1Xba-1 sites.
(§1) The following in vitro assay procedure is preferred to determine the level of activity and effect of the different compounds of the present invention on one or more of the PTPs. Similar assays can be designed along the same lines for any PTP using techniques well known in the art.
(§2) The catalytic assays described herein are performed in a 96-well format. The general procedure begins with the determination of PTP optimal pH using a three-component buffer system that minimizes ionic strength variations across a wide range of buffer pH. Next, the Michaelis-Menten constant, or Km, is determined for the substrate 6,8-difluoro-4-methylumbelliferyl phosphate (DiFMUP). This Km value is subsequently used as the substrate reaction concentration for compound screening. Finally, the test PTP is exposed to varying concentrations of compound for fifteen minutes and allowed to react with substrate for ten minutes. The results are plotted as percent inhibition versus compound concentration and the IC50 interpolated from the plot.
(§3) All assays were performed using DiFMUP as substrate. The optimum pH and substrate Km was determined for each PTP used.
(§4) PTPase activity was assayed at 25° C. in a 100-μl reaction mixture containing an appropriate concentration of DiFMUP as substrate. The reaction was initiated by addition of the purified PTP and quenched after 10 min by addition of 1% H2O2/100 mM NaCl. The non-enzymatic hydrolysis of the substrate was corrected by measuring the control without the addition of the enzyme. The amount of DiFMU produced was determined from the increase in the fluorescence (360 nm excitation/460 nm emission) over that of background in the absence of PTPase. To determine the kinetic parameter, Km, the initial velocities were measured at various substrate concentrations and the data were fitted to the Michaelis equation where velocity=(Vmax*[S])/(Km+[S]), and [S]=substrate reaction concentration.
(§5) The effect of the compounds on PTP was evaluated at 25° C. using DiFMUP as substrate. PTP was pre-incubated for fifteen minutes with various concentrations of compound. Substrate was then added at a fixed concentration (usually equal to the Km previously calculated). After 10 minutes, the reaction was quenched. The hydrolysis of DiFMUP was followed as described above. The percent inhibition was calculated as follows: Percent Inhibition=[(control signal−compound signal)/control signal]×100%. The IC50 was then determined by interpolation of a percent inhibition versus compound concentration plot.
(§6) Plasmids designed for bacterial GST-PTP fusion protein expression were derived by insertion of PCR-generated human PTP fragments into pGEX vectors (Pharmacia Biotech). Several of these constructs were then used to subclone phosphatases into pFastBac-1 for expression in Sf-9 insect cells. Oligonucleotides used for the initial amplification of PTP genes are as described above. The cDNAs were prepared using the Gilbo BRL superscript preamplification system on RNAs purchased from Clontech.

PTP SHP2 = target: T2, PTP SHP2 (Homo sapiens, UniProt Q06124)
T2 construct: The catalytic domain was amplified using the following oligonucleotides; made in house; host or cells: Sf-9 insect cells (pFastBac-G2T)
T2 sequence (Q06124 247-517 limits assumed): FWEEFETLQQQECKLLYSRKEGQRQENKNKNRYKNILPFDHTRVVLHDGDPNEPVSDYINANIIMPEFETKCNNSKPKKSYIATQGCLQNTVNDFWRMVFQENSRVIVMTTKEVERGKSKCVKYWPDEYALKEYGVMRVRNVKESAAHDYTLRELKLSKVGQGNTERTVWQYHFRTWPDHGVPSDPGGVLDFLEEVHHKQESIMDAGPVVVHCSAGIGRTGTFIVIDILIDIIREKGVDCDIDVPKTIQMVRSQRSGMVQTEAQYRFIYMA
Source text: SHP-2 cDNA was used as described earlier (Vogel W., et al.,1993, Science, 259:1611-4). The catalytic domain was amplified using the following oligonucleotides 5′oligo: 5′-[…]-3′ (SEQ ID NO: 2) 3′oligo: 5′-[…]-3′ (SEQ ID NO: 3) and subsequently subcloned into BamH1-Xba-1 sites. It was then ligated into pfas Bac-G2T BamH1-Xba-1 sites.
as §1, §2, §3, §4, §5, §6

PTP EPSILON = target: T3, PTP EPSILON (Homo sapiens, UniProt P23469)
T3 construct: made in house; host or cells: Sf-9 insect cells (pFastBac-G2T); a pGEX 6P-1 construct also existed
T3 sequence (P23469 80-393 limits assumed): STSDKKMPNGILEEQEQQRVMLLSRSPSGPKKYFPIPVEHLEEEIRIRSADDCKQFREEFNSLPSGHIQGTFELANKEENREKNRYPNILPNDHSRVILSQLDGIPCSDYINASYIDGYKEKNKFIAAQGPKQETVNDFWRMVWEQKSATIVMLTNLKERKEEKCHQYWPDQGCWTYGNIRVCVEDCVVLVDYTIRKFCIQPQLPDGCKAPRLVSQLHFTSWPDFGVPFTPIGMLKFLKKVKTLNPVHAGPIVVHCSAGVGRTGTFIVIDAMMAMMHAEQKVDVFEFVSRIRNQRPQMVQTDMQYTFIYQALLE
Source text: The PTPepsilon cDNA was amplified from human placenta single-strand cDNA (Clontech RNA) using the following oligonucleotides: 5′oligo: 5′-[…]-3′ (SEQ ID NO: 6) 3′oligo: 5′-[…]-3′ (SEQ ID NO: 7) After cloning this PCR product into the Bam HI/Xho I sites of pGEX 6P-1, this phosphatase was subcloned using the same restriction sites in pFastBac-G2T.
as §1, §2, §3, §4, §5, §6

[1] = DiFMUP as substrate, 25° C., read-out: PTP IC50 1B
[2] = DiFMUP as substrate, 25° C., read-out: PTP IC50 SHP2
[3] = DiFMUP as substrate, 25° C., read-out: PTP IC50 Epilson

IC50 (PTP 1B; [1]) | IC50 (PTP SHP2; [2]) | IC50 (PTP EPSILON; [3]) | Compound | IC50 (PTP 1B) | IC50 (PTP SHP2) | IC50 (PTP EPSILON)
> 100 µM | > 100 µM | > 100 µM | CCOC(=O)CNC(=O)C(c1ccc(S(=O)(=O)C(F)(F)F)cc1)N(C(C)=O)C1CCCCC1 (stereo not drawn) [Example 51, [2-(Acetyl-cyclohexyl-amino)-2-(4-trifluoromethanesulfonyl-phenyl)-acetylamino]-acetic acid ethyl ester] |  |  | 
> 20 µM | 8 µM | 64.5 µM | O=C(O)COc1ccc(S(=O)(=O)c2ccc(Oc3ccc(S(=O)(=O)C(F)(F)F)cc3[N+](=O)[O-])cc2)cc1 [Example 52, {4-[4-(2-Nitro-4-trifluoromethanesulfonyl-phenoxy)-benzenesulfonyl]-phenoxy}-acetic acid] |  |  | 
1.5 µM | 1.5 µM | 22.2 µM | O=C(O)c1ccc(OCCOc2ccc(S(=O)(=O)C(F)(F)F)cc2[N+](=O)[O-])cc1 [Example 53, 4-[2-(2-Nitro-4-trifluoromethanesulfonyl-phenoxy)-ethoxy]-benzoic acid] |  |  | 
9.4 µM | 4.4 µM | 29.1 µM | O=[N+]([O-])c1ccccc1NCC(O)COc1ccc(S(=O)(=O)C(F)(F)F)cc1[N+](=O)[O-] (stereo not drawn) [Example 58, 1-(2-Nitro-phenylamino)-3-(2-nitro-4-trifluoromethanesulfonyl-phenoxy)-propan-2-ol] |  |  | 
16.2 µM | 4.8 µM | 50.9 µM | O=[N+]([O-])c1ccc(NCC(O)COc2ccc(S(=O)(=O)C(F)(F)F)cc2[N+](=O)[O-])cc1 (stereo not drawn) [Example 60, 1-(4-Nitro-phenylamino)-3-(2-nitro-4-trifluoromethanesulfonyl-phenoxy)-propan-2-ol] |  |  | 
> 100 µM | > 100 µM | > 20 µM | O=C(O)c1cc2cc(NS(=O)(=O)C(F)(F)F)ccc2[nH]1 [Example 77, 5-Trifluoromethanesulfonylamino-1H-indole-2-carboxylic acid] |  |  | 

Continued, compound first:

Compound | IC50 (PTP 1B; [1]) | IC50 (PTP SHP2; [2]) | IC50 (PTP EPSILON; [3]) | IC50 (PTP 1B) | IC50 (PTP SHP2) | IC50 (PTP EPSILON)
CCOC(=O)c1cccc(NC(=O)c2ccc(-c3nc4cc(S(=O)(=O)C(F)(F)F)ccc4n3CC)cc2)c1 [Example 39, 3-[4-(1-Ethyl-5-trifluoromethanesulfonyl-1H-benzoimidazol-2-yl)-benzoylamino]-benzoic acid ethyl ester] | 3.7 µM | 1.2 µM | 1.5 µM |  |  | 
CCn1c(-c2ccc(C(=O)NCCN3CCCC3)cc2)nc2cc(S(=O)(=O)C(F)(F)F)ccc21 [Example 40, 4-(1-Ethyl-5-trifluoromethanesulfonyl-1H-benzoimidazol-2-yl)-N-(2-pyrrolidin-1-yl-ethyl)-benzamide] | > 20 µM | > 100 µM | > 100 µM |  |  | 
CCNC(=O)c1ccc(-c2nc3cc(S(=O)(=O)C(F)(F)F)ccc3n2CC)cc1 [Example 41, N-Ethyl-4-(1-ethyl-5-trifluoromethanesulfonyl-1H-benzoimidazol-2-yl)-benzamide] | > 20 µM | 19 µM | 13.5 µM |  |  | 
CCn1c(C(=O)O)nc2cc(S(=O)(=O)C(F)(F)F)ccc21 [Example 42, 1-Ethyl-5-trifluoromethanesulfonyl-1H-benzoimidazole-2-carboxylic acid] | > 20 µM | > 100 µM | 98 µM |  |  | 
CCCCN(C(=O)c1ccccc1)C(C(=O)NCC(=O)OC)c1ccc(S(=O)(=O)C(F)(F)F)cc1 (stereo not drawn) [Example 43, [2-(Benzoyl-butyl-amino)-2-(4-trifluoromethanesulfonyl-phenyl)-acetylamino]-acetic acid methyl ester] | > 20 µM | 74.6 µM | 53.9 µM |  |  | 
CCCCNC(=O)C(c1ccc(S(=O)(=O)C(F)(F)F)cc1)N(Cc1ccccc1)C(=O)c1ccccc1 (stereo not drawn) [Example 44, N-Benzyl-N-[butylcarbamoyl-(4-trifluoromethanesulfonyl-phenyl)-methyl]-benzamide] | 15.8 µM | 22.7 µM | 19 µM |  |  | 
CCCCNC(=O)C(c1ccc(S(=O)(=O)C(F)(F)F)cc1)N(CCO)C(=O)c1ccccc1 (stereo not drawn) [Example 45, N-[Butylcarbamoyl-(4-trifluoromethanesulfonyl-phenyl)-methyl]-N-(2-hydroxy-ethyl)-benzamide] | > 100 µM | > 100 µM | > 100 µM |  |  | 
CCOC(=O)CNC(=O)C(c1ccc(S(=O)(=O)C(F)(F)F)cc1)N(C(C)=O)C1CC1 (stereo not drawn) [Example 46, [2-(Acetyl-cyclopropyl-amino)-2-(4-trifluoromethanesulfonyl-phenyl)-acetylamino]-acetic acid ethyl ester] | > 100 µM | > 100 µM | > 100 µM |  |  | 
Cc1cccc(C)c1NC(=O)C(c1ccc(S(=O)(=O)C(F)(F)F)cc1)N(C(=O)c1ccccc1)C1CCCCC1 (stereo not drawn) [Example 49, N-Cyclohexyl-N-[(2,6-dimethyl-phenylcarbamoyl)-(4-trifluoromethanesulfonyl-phenyl)-methyl]-benzamide] | 8.3 µM | 10.6 µM | 9.3 µM |  |  | 
CCCN(C(C)=O)C(C(=O)NCC(=O)OCC)c1ccc(S(=O)(=O)C(F)(F)F)cc1 (stereo not drawn) [Example 50, [2-(Acetyl-propyl-amino)-2-(4-trifluoromethanesulfonyl-phenyl)-acetylamino]-acetic acid ethyl ester] | > 100 µM | > 100 µM | > 100 µM |  |  | 
O=[N+]([O-])c1ccc(NCC(COc2ccc(S(=O)(=O)C(F)(F)F)cc2[N+](=O)[O-])Oc2ccc(S(=O)(=O)C(F)(F)F)cc2[N+](=O)[O-])cc1 (stereo not drawn) [Example 59, [2,3-Bis-(2-nitro-4-trifluoromethanesulfonyl-phenoxy)-propyl]-(4-nitro-phenyl)-amine] |  |  |  | 0.9 µM | 0.2 µM | 38.1 µM
O=[N+]([O-])c1cc(S(=O)(=O)C(F)(F)F)ccc1Oc1ccc(S(=O)(=O)c2ccc(Oc3ccc(S(=O)(=O)C(F)(F)F)cc3[N+](=O)[O-])cc2)cc1 [Example 63, Bis-{[4-(2-nitro-4-trifluoromethanesulfonyl)-phenoxy]-phenyl}sulfone] |  |  |  | 0.7 µM | 0.4 µM | 2.4 µM
